How the values were obtained:
Friend-Leukämie-Virus [1] = test: Friend leukaemia virus (FLV) infection in the mouse, oral application via drinking water (Tabelle II); format: in vivo, Maus; settings: for n* Anzahl überlebende Mäuse / Hg: oral; for Hg: haemoglobin content of blood
Description: Blockierung der Reverse Transkriptase-(RT)-Aktivität untersucht wird, erscheint die Wahl eines solchen Ersatzmodelles gerechtfertigt. Im vorliegenden Fall wurde die Infektion der Maus mit dem Friend-Leukämie-Virus gewählt. Dazu wurden normale Labormäuse (NMRI = Naval Medical Research Institute) durch intravenöse Injektion mit Friend-Virus enthaltendem Mäuseserum infiziert. […] Die Behandlung erfolgte über 10 Tage, beginnend 48 Stunden nach der Infektion. Am 14. Versuchstag wurden die Tiere durch Luxation der Halswirbel getötet und geöffnet. Die Milz wurde entnommen und gewogen. Als Meßparameter der therapeutischen Wirksamkeit wurde das Milzgewicht der behandelten Tiere mit dem der unbehandelten Infektionskontrolle in Relation gesetzt.

Friend-Leukämie-Virus [2] = test: Friend leukaemia virus (FLV) infection in the mouse, i.p. application (Tabelle I); format: in vivo, Maus; settings: for rel. Milzgewicht: NMRI mice, treatment over 10 days starting 48 h after infection, spleen weighed day 14; for n* Anzahl überlebende Mäuse: groups of 10 mice
Description: Blockierung der Reverse Transkriptase-(RT)-Aktivität untersucht wird, erscheint die Wahl eines solchen Ersatzmodelles gerechtfertigt. Im vorliegenden Fall wurde die Infektion der Maus mit dem Friend-Leukämie-Virus gewählt. Dazu wurden normale Labormäuse (NMRI = Naval Medical Research Institute) durch intravenöse Injektion mit Friend-Virus enthaltendem Mäuseserum infiziert. Bei den unbehandelten Kontrolltieren entwickelte sich als Symptom der Infektion innerhalb von 2 Wochen eine deutliche Vergrößerung von Milz und Leber. Die Behandlung erfolgte über 10 Tage, beginnend 48 Stunden nach der Infektion. Am 14. Versuchstag wurden die Tiere durch Luxation der Halswirbel getötet und geöffnet. Die Milz wurde entnommen und gewogen. Als Meßparameter der therapeutischen Wirksamkeit wurde das Milzgewicht der behandelten Tiere mit dem der unbehandelten Infektionskontrolle in Relation gesetzt.
Während bei uninfizierten ausgewachsenen Labormäusen (20 - 24 g Körpergewicht) die Milz etwa 1 % des Körpergewichtes oder weniger wog, erreichte bei infizierten Tieren die Milz am Ende des Versuchs etwa 10 % des Körpergewichts.
Tabelle I zeigt die Ergebnisse der Wirksamkeitstests bei der Friend-Leukämie-Virusinfektion in der Maus bei intraperitonealer Verabreichung der erfindungsgemäßen Verbindungen. Als Kontrolle diente eine Gruppe von Mäusen, die unbehandelt blieben.
Zum Vergleich wurde eine weitere Gruppe von Mäusen mit Suramin behandelt. Tabelle I verdeutlicht, daß die erfindungsgemäßen Verbindungen besser wirken als Suramin, bei vergleichbarer oder geringerer Beeinträchtigung des Hämaglobingehaltes des Blutes. Bei Verabreichung der erfindungsgemäßen Verbindungen überlebten alle Mäuse die Behandlung, wohingegen bei der Verabreichung von Suramin 3 von 10 Mäusen starben. Weiterhin war der Behandlungserfolg, erkennbar an der Verringerung der Milzschwellung, bei Verabreichung aller getesteten Verbindungen größer als bei der Verabreichung von Suramin.

[3] = Qualitative solubility noted in the preparation examples; format: physicochemical
[4] = 0.05 mg/ml in drinking water, oral (10 x 0.17-0.18 mg/Maus)
[5] = 0.10 mg/ml in drinking water, oral (10 x 0.33-0.36 mg/Maus)
[6] = 0.50 mg/ml in drinking water, oral (10 x 1.67-1.77 mg/Maus)

Q: With `Cc1cn([C@H]2C[C@H](N=[N+]=[N-])[C@@H](CO)O2)c(=O)[nH]c1=O` [AZT, Azidothymidin, reference compound] as the compound, how does the “n* Anzahl überlebende Mäuse” value (Friend-Leukämie-Virus [1]; 0.05 mg/ml in drinking water) read?
A: 10

Q: What about the Hg (Friend-Leukämie-Virus [1]; 0.05 mg/ml in drinking water) of the same compound?
A: 14.1 g/%

Q: And the “n* Anzahl überlebende Mäuse” value (Friend-Leukämie-Virus [1]; 0.10 mg/ml in drinking water)?
A: 10

Q: And the Hg (Friend-Leukämie-Virus [1]; 0.10 mg/ml in drinking water)?
A: 12.7 g/%

Q: For `c1cncc(CSc2ncnc3[nH]cnc23)c1` [Präparat 2, 6-(3-Pyridylmethyl)-mercaptopurin], which “rel. Milzgewicht” value (Friend-Leukämie-Virus [2]; 10 x 0.1 mg/Maus i.p.) is on record?
A: 5.46 ± 3.32 % Körpergewicht

Q: What about the “rel. Milzgewicht” value (Friend-Leukämie-Virus [2]; 10 x 1.0 mg/Maus i.p.) of the same compound?
A: 1.84 ± 0.82 % Körpergewicht

Q: And the “rel. Milzgewicht” value (Friend-Leukämie-Virus [1]; [4])?
A: 5.76 ± 2.72 % Körpergewicht

Q: What about the “rel. Milzgewicht” value (Friend-Leukämie-Virus [1]; [5]) of the same compound?
A: 1.46 ± 1.00 % Körpergewicht

Q: And the “rel. Milzgewicht” value (Friend-Leukämie-Virus [1]; [6])?
A: 0.90 ±1.12 % Körpergewicht

Q: For `C=CCSc1ncnc2[nH]cnc12` [Präparat 3, 6-(2-propenyl)-mercaptopurin], which “rel. Milzgewicht” value (Friend-Leukämie-Virus [2]; 10 x 0.1 mg/Maus i.p.) is on record?
A: 5.86 ± 1.84 % Körpergewicht

Q: And the “rel. Milzgewicht” value (Friend-Leukämie-Virus [2]; 10 x 1.0 mg/Maus i.p.)?
A: 1.37 ± 0.38 % Körpergewicht

Q: And the “rel. Milzgewicht” value (Friend-Leukämie-Virus [1]; [4])?
A: 4.52 ± 2.28 % Körpergewicht

Q: And the “rel. Milzgewicht” value (Friend-Leukämie-Virus [1]; [5])?
A: 1.51 ± 1.26 % Körpergewicht

Q: And the “Löslichkeit in Alkohol, heißem Wasser und Polyethylenglykol” value [3]?
A: leicht löslich

Q: What about the “Löslichkeit in kaltem Wasser” value [3] of the same compound?
A: Schwer löslich

Q: Which results are given for `Cc1ccc(C(=O)Nc2ccc(S(=O)(=O)O)c3cc(S(=O)(=O)O)cc(S(=O)(=O)O)c23)cc1NC(=O)c1cccc(NC(=O)Nc2cccc(C(=O)Nc3cc(C(=O)Nc4ccc(S(=O)(=O)O)c5cc(S(=O)(=O)O)cc(S(=O)(=O)O)c45)ccc3C)c2)c1` [Suramin, reference compound]?
A: rel. Milzgewicht (Friend-Leukämie-Virus [2]; 10 x 1.0 mg/Maus i.p.): 4.54 ± 1.86 % Körpergewicht; Mäuse starben (Friend-Leukämie-Virus [2]; in vivo, ip): 3; rel. Milzgewicht (Friend-Leukämie-Virus [1]; 10 x 1.00 mg/Maus i.p., comparison group within the Tabelle II experiment): 4.50 ± 2.22 % Körpergwicht

Q: What does the source list for `c1cc(CSc2ncnc3[nH]cnc23)ccn1` [Präparat 1, 6-(4-pyridylmethyl)-mercaptopurin]?
A: rel. Milzgewicht (Friend-Leukämie-Virus [2]; 10 x 0.1 mg/Maus i.p.): 5.23 ± 2.69 % Körpergewicht; n* Anzahl überlebende Mäuse (Friend-Leukämie-Virus [2]; 10 x 0.1 mg/Maus i.p.): 10; rel. Milzgewicht (Friend-Leukämie-Virus [2]; 10 x 1.0 mg/Maus i.p.): 2.08 ± 0.44 % Körpergewicht; n* Anzahl überlebende Mäuse (Friend-Leukämie-Virus [2]; 10 x 1.0 mg/Maus i.p.): 10; Hg (Friend-Leukämie-Virus [2]; 10 x 1.0 mg/Maus i.p., haemoglobin content of blood): 13.2 g/ %; n* Anzahl überlebende Mäuse (Friend-Leukämie-Virus [1]; 0.05 mg/ml in drinking water): 10; rel. Milzgewicht (Friend-Leukämie-Virus [1]; [4]): 7.01 ± 2.99 % Körpergewicht; n* Anzahl überlebende Mäuse (Friend-Leukämie-Virus [1]; 0.10 mg/ml in drinking water): 10; rel. Milzgewicht (Friend-Leukämie-Virus [1]; [5]): 4.80 ± 2.74 % Körpergewicht; n* Anzahl überlebende Mäuse (Friend-Leukämie-Virus [1]; 0.50 mg/ml in drinking water): 10; rel. Milzgewicht (Friend-Leukämie-Virus [1]; [6]): 1.66 ± 1.25 % Körpergewicht; Hg (Friend-Leukämie-Virus [1]; 0.50 mg/ml in drinking water): 11.3 g/%; Löslichkeit in Wasser ([3]; free base): unlöslich; Löslichkeit in allen säurehaltigen Flüssigkeiten ([3]; free base): gut löslich

Source: EP0350742A1, “6-Merkaptopurines derivatives, their preparation and their use against retrovirus infections” (HOECHST AKTIENGESELLSCHAFT, priority 1988, dated 1990)
